The record followed here is patent US4232148A, “6-Deoxyneamines” (The Upjohn Company, priority 1979, dated 1980).

Converted amounts (≈) assume the structure as drawn.

The subject of this test is E. coli UC 45. Nature of the test: standard microplate test in BHI Agar, MIC. In kind it is cell-based. To be noted: Escherichia coli, UC45, 37°, 20 hours, read-out: Minimum Inhibitory Concentration. Here is the method: The compounds VII, XI, XVβ, XVα and XVI were tested in a standard microplate test in BHI (Brain Heart Infusion) Agar at a concentration of 1 mg./ml. and dilutions thereof at 37° incubation temperature. The end points are read at 20 hours. BHI Agar is supplied by Difco Laboratories, Detroit, Mich., U.S.A. and has the following compositions:
Calf brains, infusion from: 200 gm.
Beef heart, infusion from: 250 gm.
Bacto Proteose-peptone, Difco: 10 gm.
Bacto-Dextrose, Difco: 1 gm.
Disodium phosphate: 2.5 gm.

In the case of `NC[C@H]1O[C@H](O[C@H]2[C@H](O)[C@@H](O)[C@H](N)C[C@@H]2N)[C@H](N)[C@@H](O)[C@@H]1O` [Neamine], the MIC stood at 62.5 µg/mL (≈ 194 µM).
